# Patent US10820597B2, “Phytosanitary composition comprising essential oils that potentiate antifungal activity” (BIOFUNGITEK, S. L., priority 2011, dated 2020)
# “And” between values parts separate entries of the source, which are not always exact repeats. Identical values can stand only once. Like-named read-outs stand apart in the source and are kept apart here.
# Experiments:
# [1] = tested on: Penicillium digitatum; conditions: green mold on oranges; cited from earlier work
# [2] = tested on: Cercospora beticola; experiment: Growth of C. beticola on PDA, colony diameter; format: cell-based
# Procedure: Cercospora beticola was cultured on PDA (potato dextrose agar) culture medium buffered to a pH value not exceeding 9.5. […] The % inhibition was calculated with the following formula:
# [formula] wherein “colony diameter (control)” is the size of the control colony (without the compounds to be tested) and “colony diameter (x)” is the size of the colony with the substance(s) to be tested. A fixed K2CO3 concentration of 7.24 mM was tested in C. beticola.
# The fungus C. beticola was cultured in a similar way to Example 16 with 10 ppm of carvacrol.
# The fungus C. beticola was cultured in a similar way to Example 16 with a fixed concentration of K2CO3 (7.24 mM) and carvacrol (10 ppm).
# [3] = tested on: Botrytis cinerea; experiment: Treated tomato leaves infected with B. cinerea, % infection after two weeks; format: in vivo
# [4] = tested on: Phytophthora infestans; format: in vivo; conditions: tomato plants
# [5] = tested on: Alternaria alternata; experiment: Growth of A. alternata in liquid culture, optical density after 24 h; format: cell-based
# [6] = tested on: Botrytis cinerea; experiment: Growth of B. cinerea in PDB liquid culture, optical density after 24 h; format: cell-based
# [7] = tested on: Alternaria alternata; experiment: Treated tomato leaves infected with A. alternata, % infection; format: in vivo
# [8] = tested on: Penicillium digitatum; experiment: Growth of P. digitatum in liquid culture, optical density after 24 h; format: cell-based
# [9] = tested on: Leveillula taurica; format: in vivo
# [10] = K2CO3 concentration between 3.5 and 5 mM
# [11] = thymol 350 ppm, listed as thymol
# [12] = carvacrol 308 ppm, listed as carvacrol
compound,measurement,setting,value
"O=C([O-])[O-].[K+].[K+] [K2CO3, potassium carbonate]",fungicide treatment efficacy,[1],effective as fungicide treatment
same,Inhibition ± SD (%),[2]; K2CO3 7.24 mM,25%
same,Inhibition ± SD (%),[3]; K2CO3 12 mM,14% and 13.4%
same,Inhibition ± SD (%),[3]; K2CO3 13 mM,14% and 13.5%
same,Inhibition ± SD (%),[3]; K2CO3 14 mM,13.8%
same,Inhibition ± SD (%),[3]; K2CO3 15 mM,13.8%
same,Inhibition ± SD (%),[3]; K2CO3 22 mM,15.3%
same,Inhibition ± SD (%),[4]; K2CO3 15 mM,19% and 18.5 ± 3.6%
same,Inhibition ± SD (%),"[5]; K2CO3 3.5 mM, 24 h OD",32% and 31.5%
same,Inhibition ± SD (%),"[5]; K2CO3 4.25 mM, 24 h OD",39.7%
same,Inhibition ± SD (%),"[5]; K2CO3 4.5 mM, 24 h OD",48.0%
same,Inhibition ± SD (%),"[5]; K2CO3 5 mM, 24 h OD",59.0%
same,inhibition of the culture,[5]; [10],inhibition of the A. alternata culture was observed
same,Inhibition ± SD (%),"[6]; K2CO3 3.5 mM, 24 h OD",48% and 48.2%
same,Inhibition ± SD (%),"[6]; K2CO3 4.25 mM, 24 h OD",53.3%
same,Inhibition ± SD (%),"[6]; K2CO3 4.5 mM, 24 h OD",67.2%
same,Inhibition ± SD (%),"[6]; K2CO3 5 mM, 24 h OD",71.0%
same,inhibition of the culture,[6]; [10],inhibition of the B. cinerea culture was observed
same,Inhibition ± SD (%),[7]; K2CO3 12 mM,6.5%
same,Inhibition ± SD (%),[7]; K2CO3 13 mM,7%
same,Inhibition ± SD (%),[7]; K2CO3 14 mM,7.2%
same,Inhibition ± SD (%),[7]; K2CO3 15 mM,7.8%
same,Inhibition ± SD (%),[7]; K2CO3 22 mM,8.6%
same,Inhibition ± SD (%),"[8]; K2CO3 3.5 mM, 24 h OD",29% and 29.1%
same,Inhibition ± SD (%),"[8]; K2CO3 4.25 mM, 24 h OD",33.0%
same,Inhibition ± SD (%),"[8]; K2CO3 4.5 mM, 24 h OD",36.9%
same,Inhibition ± SD (%),"[8]; K2CO3 5 mM, 24 h OD",39.5%
same,inhibition of the culture,[8]; [10],inhibition of the P. digitatum culture was observed
same,Inhibition ± SD (%),"[9]; K2CO3 15 mM, tomato plants",14%
same,Inhibition ± SD (%),[9]; in vivo,14% and 13.9 ± 0.5%
"Cc1ccc(C(C)C)c(O)c1 [Thymol, thymol]",Inhibition ± SD (%),[3]; thymol 35 ppm,7.4%
same,Inhibition ± SD (%),[3]; thymol 100 ppm,17.7%
same,Inhibition ± SD (%),[3]; thymol 200 ppm,20.9%
same,Inhibition ± SD (%),[3]; thymol 350 ppm,22.8%
same,Inhibition ± SD (%),[3]; [11],23%
same,Inhibition ± SD (%),[4]; thymol 35 ppm,4.3 ± 0.7%
same,Inhibition ± SD (%),[4]; thymol 150 ppm,16.2 ± 3.2%
same,Inhibition ± SD (%),[4]; thymol 350 ppm,33.6 ± 5.6%
same,Inhibition ± SD (%),[4]; [11],34%
same,inhibition at 0.31 ppm,"[5]; Alternaria alternata, thymol 0.31 ppm, 24 h OD, read-out: Inhibition ± SD (%)",0%
same,inhibition at 1 ppm,"[5]; Alternaria alternata, thymol 1 ppm, 24 h OD, read-out: Inhibition ± SD (%)",4.1 ± 2.9%
same,inhibition at 3.1 ppm,"[5]; Alternaria alternata, thymol 3.1 ppm, 24 h OD, read-out: Inhibition ± SD (%)",10.4 ± 2.6%
same,inhibition at 10 ppm,"[5]; Alternaria alternata, thymol 10 ppm, 24 h OD, read-out: Inhibition ± SD (%)",16 ± 2%
same,inhibition at 31 ppm,"[5]; Alternaria alternata, thymol 31 ppm, 24 h OD, read-out: Inhibition ± SD (%)",29%
same,inhibition at 100 ppm,"[5]; Alternaria alternata, thymol 100 ppm, 24 h OD, read-out: Inhibition ± SD (%)",69.4%
same,inhibition at 0.31 ppm,"[6]; Botrytis cinerea, 24 h, thymol 0.31 ppm, 24 h OD, read-out: Inhibition ± SD (%)",0%
same,inhibition at 1 ppm,"[6]; Botrytis cinerea, 24 h, thymol 1 ppm, 24 h OD, read-out: Inhibition ± SD (%)",2.1 ± 2.9%
same,inhibition at 3.1 ppm,"[6]; Botrytis cinerea, 24 h, thymol 3.1 ppm, 24 h OD, read-out: Inhibition ± SD (%)",10.7 ± 2.3%
same,inhibition at 10 ppm,"[6]; Botrytis cinerea, 24 h, thymol 10 ppm, 24 h OD, read-out: Inhibition ± SD (%)",13%
same,inhibition at 31 ppm,"[6]; Botrytis cinerea, 24 h, thymol 31 ppm, 24 h OD, read-out: Inhibition ± SD (%)",32 ± 1.7%
same,inhibition at 100 ppm,"[6]; Botrytis cinerea, 24 h, thymol 100 ppm, 24 h OD, read-out: Inhibition ± SD (%)",88.2 ± 0.6%
same,Inhibition ± SD (%),"[6]; thymol 10 ppm, 24 h OD",12.6 ± 2.4%
same,Inhibition ± SD (%),[7]; thymol 35 ppm,10.0%
same,Inhibition ± SD (%),[7]; thymol 100 ppm,15.2%
same,Inhibition ± SD (%),[7]; thymol 200 ppm,19.3%
same,Inhibition ± SD (%),[7]; thymol 350 ppm,21.3%
same,Inhibition ± SD (%),[7]; [11],21%
same,inhibition at 0.31 ppm,"[8]; Penicillium digitatum, 24 h, thymol 0.31 ppm, 24 h OD, read-out: Inhibition ± SD (%)",28.2 ± 3.9%
same,inhibition at 1 ppm,"[8]; Penicillium digitatum, 24 h, thymol 1 ppm, 24 h OD, read-out: Inhibition ± SD (%)",24.2 ± 6%
same,inhibition at 3.1 ppm,"[8]; Penicillium digitatum, 24 h, thymol 3.1 ppm, 24 h OD, read-out: Inhibition ± SD (%)",36.3 ± 2.3%
same,inhibition at 10 ppm,"[8]; Penicillium digitatum, 24 h, thymol 10 ppm, 24 h OD, read-out: Inhibition ± SD (%)",36.2 ± 2%
same,inhibition at 31 ppm,"[8]; Penicillium digitatum, 24 h, thymol 31 ppm, 24 h OD, read-out: Inhibition ± SD (%)",51%
same,inhibition at 100 ppm,"[8]; Penicillium digitatum, 24 h, thymol 100 ppm (first column headed 100), 24 h OD, read-out: Inhibition ± SD (%)",78.3 ± 2.2%
same,inhibition at 100 ppm,"[8]; Penicillium digitatum, 24 h, thymol 100 ppm (second column headed 100), 24 h OD, read-out: Inhibition ± SD (%)",95.6 ± 0.5%
same,Inhibition ± SD (%),"[8]; thymol 31 ppm, 24 h OD",50.7 ± 2.0%
"Cc1ccc(C(C)C)cc1O [Carvacrol, carvacrol]",inhibition at 10 ppm,"[2]; Cercospora beticola, carvacrol 10 ppm, read-out: Inhibition ± SD (%)",17%
same,Inhibition ± SD (%),[3]; carvacrol 26 ppm,7.2%
same,Inhibition ± SD (%),[3]; carvacrol 31 ppm,7.4%
same,Inhibition ± SD (%),[3]; carvacrol 100 ppm,16.7%
same,Inhibition ± SD (%),[3]; carvacrol 200 ppm,18.6%
same,Inhibition ± SD (%),[3]; carvacrol 308 ppm,20.8%
same,Inhibition ± SD (%),[3]; [12],21%
same,Inhibition ± SD (%),[4]; carvacrol 26 ppm,3.2 ± 0.8%
same,Inhibition ± SD (%),[4]; carvacrol 150 ppm,17.1 ± 2.3%
same,Inhibition ± SD (%),[4]; carvacrol 308 ppm,35.0 ± 4.8%
same,Inhibition ± SD (%),[4]; [12],35%
same,inhibition at 0.1 ppm,"[5]; Alternaria alternata, read-out: Inhibition ± SD (%), carvacrol 0.1 ppm",0%
same,inhibition at 0.31 ppm,"[5]; Alternaria alternata, read-out: Inhibition ± SD (%), carvacrol 0.31 ppm",2 ± 0.3%
same,inhibition at 1 ppm,"[5]; Alternaria alternata, read-out: Inhibition ± SD (%), carvacrol 1 ppm",3.5 ± 0.8%
same,inhibition at 3.1 ppm,"[5]; Alternaria alternata, read-out: Inhibition ± SD (%), carvacrol 3.1 ppm",5.8 ± 1.4%
same,inhibition at 10 ppm,"[5]; Alternaria alternata, read-out: Inhibition ± SD (%), carvacrol 10 ppm",17.7 ± 11%
same,inhibition at 31 ppm,"[5]; Alternaria alternata, read-out: Inhibition ± SD (%), carvacrol 31 ppm",27%
same,inhibition at 100 ppm,"[5]; Alternaria alternata, read-out: Inhibition ± SD (%), carvacrol 100 ppm",74.6 ± 8%
same,Inhibition ± SD (%),[5]; carvacrol 31 ppm,27.2 ± 14.0%
same,inhibition at 0.1 ppm,"[6]; Botrytis cinerea, 24 h, read-out: Inhibition ± SD (%), carvacrol 0.1 ppm, 24 h OD",0%
same,inhibition at 0.31 ppm,"[6]; Botrytis cinerea, 24 h, read-out: Inhibition ± SD (%), carvacrol 0.31 ppm, 24 h OD",10.5 ± 7.7%
same,inhibition at 1 ppm,"[6]; Botrytis cinerea, 24 h, read-out: Inhibition ± SD (%), carvacrol 1 ppm, 24 h OD",13.7 ± 4.1%
same,inhibition at 3.1 ppm,"[6]; Botrytis cinerea, 24 h, read-out: Inhibition ± SD (%), carvacrol 3.1 ppm, 24 h OD",22.4 ± 3.4%
same,inhibition at 10 ppm,"[6]; Botrytis cinerea, 24 h, read-out: Inhibition ± SD (%), carvacrol 10 ppm, 24 h OD",21%
same,inhibition at 31 ppm,"[6]; Botrytis cinerea, 24 h, read-out: Inhibition ± SD (%), carvacrol 31 ppm, 24 h OD",51.4 ± 5.5%
same,inhibition at 100 ppm,"[6]; Botrytis cinerea, 24 h, read-out: Inhibition ± SD (%), carvacrol 100 ppm, 24 h OD",74.4 ± 1.1%
same,Inhibition ± SD (%),"[6]; carvacrol 10 ppm, 24 h OD",21.3 ± 5.0%
same,Inhibition ± SD (%),[7]; carvacrol 26 ppm,4.3%
same,Inhibition ± SD (%),[7]; carvacrol 31 ppm,5.8%
same,Inhibition ± SD (%),[7]; carvacrol 100 ppm,11.4%
same,Inhibition ± SD (%),[7]; carvacrol 200 ppm,16.1%
same,Inhibition ± SD (%),[7]; carvacrol 308 ppm,18% and 18.4%
same,inhibition at 0.1 ppm,"[8]; Penicillium digitatum, 24 h, read-out: Inhibition ± SD (%), carvacrol 0.1 ppm, 24 h OD",32.3 ± 2.8%
same,inhibition at 0.31 ppm,"[8]; Penicillium digitatum, 24 h, read-out: Inhibition ± SD (%), carvacrol 0.31 ppm, 24 h OD",34.3 ± 2.8%
same,inhibition at 1 ppm,"[8]; Penicillium digitatum, 24 h, read-out: Inhibition ± SD (%), carvacrol 1 ppm, 24 h OD",37.9 ± 3%
same,inhibition at 3.1 ppm,"[8]; Penicillium digitatum, 24 h, read-out: Inhibition ± SD (%), carvacrol 3.1 ppm, 24 h OD",52.6 ± 2.2%
same,inhibition at 10 ppm,"[8]; Penicillium digitatum, 24 h, read-out: Inhibition ± SD (%), carvacrol 10 ppm, 24 h OD",58%
same,inhibition at 31 ppm,"[8]; Penicillium digitatum, 24 h, read-out: Inhibition ± SD (%), carvacrol 31 ppm, 24 h OD",86 ± 1.1%
same,inhibition at 100 ppm,"[8]; Penicillium digitatum, 24 h, read-out: Inhibition ± SD (%), carvacrol 100 ppm, 24 h OD",100%
same,Inhibition ± SD (%),"[8]; carvacrol 10 ppm, 24 h OD",57.8 ± 2.1%
